Measured values as given in ChEMBL document CHEMBL1201862, “PubChem BioAssay data set” (2004).
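Method: 48-hour compound exposure of cells in 96-well plates, five concentrations, linear interpolation of endpoints. GI50 = concentration required for 50% inhibition of growth.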 Calls of active or inactive are those of the source. Rule as the data show it: active = GI50 up to about 1.1 µM and inactive = higher.

Tests used:
Experiment in all cases: DTP human tumour cell line panel, 48 h
A498 = test system: A498
CAKI-1 = test system: CAKI-1
EKVX = test system: EKVX
HL-60 = test system: HL-60
HOP-62 = test system: HOP-62
HT-29 = test system: HT-29
IGROV-1 = test system: IGROV-1
MDA-MB-231 = test system: MDA-MB-231
MDA-N = test system: MDA-N
MOLT-4 = test system: MOLT-4
NCI-H460 = test system: NCI-H460
NCI/ADR-RES = test system: NCI/ADR-RES
OVCAR-3 = test system: OVCAR-3
OVCAR-5 = test system: OVCAR-5
RPMI-8226 = test system: RPMI-8226
RXF 393 = test system: RXF 393
SK-MEL-2 = test system: SK-MEL-2
UACC-257 = test system: UACC-257
SF-268 = test system: SF-268
HCC 2998 = test system: HCC 2998

O=C(O)C(CCc1ccccc1)N1C(=O)c2ccccc2C1=O (centres undefined)
GI50 (A498): > 100 µM (inactive) | GI50 (CAKI-1): > 100 µM (inactive) | GI50 (EKVX): > 100 µM (inactive) | GI50 (HL-60): > 100 µM (inactive) | GI50 (HOP-62): > 100 µM (inactive) | GI50 (HT-29): > 100 µM (inactive) | GI50 (IGROV-1): > 100 µM (inactive) | GI50 (MDA-MB-231): > 100 µM (inactive) | GI50 (MDA-N): > 100 µM (inactive) | GI50 (MOLT-4): > 100 µM (inactive) | GI50 (NCI-H460): > 100 µM (inactive) | GI50 (NCI/ADR-RES): > 100 µM (inactive) | GI50 (OVCAR-3): > 100 µM (inactive) | GI50 (OVCAR-5): > 100 µM (inactive) | GI50 (RPMI-8226): > 100 µM (inactive) | GI50 (RXF 393): > 100 µM (inactive) | GI50 (SK-MEL-2): > 100 µM (inactive) | GI50 (UACC-257): > 100 µM (inactive)

Cc1ccc([N+](=O)[O-])cc1S(=O)(=O)Nc1ccc(C2=NN(C(=O)c3ccccc3)C(c3ccccc3O)C2)cc1 (centres undefined)
GI50 (A498): 12.9 µM (inactive) | GI50 (CAKI-1): 17.6 µM (inactive) | GI50 (EKVX): 12.6 µM (inactive) | GI50 (HL-60): 18.6 µM (inactive) | GI50 (HOP-62): 25.3 µM (inactive) | GI50 (HT-29): 17.7 µM (inactive) | GI50 (IGROV-1): 10.2 µM (inactive) | GI50 (MDA-MB-231): 15.7 µM (inactive) | GI50 (MDA-N): 21.5 µM (inactive) | GI50 (MOLT-4): 13.6 µM (inactive) | GI50 (NCI/ADR-RES): 27 µM (inactive) | GI50 (OVCAR-3): 17 µM (inactive) | GI50 (OVCAR-5): 19.7 µM (inactive) | GI50 (RPMI-8226): 11.5 µM (inactive) | GI50 (RXF 393): 12.3 µM (inactive) | GI50 (SF-268): 12.8 µM (inactive) | GI50 (SK-MEL-2): 16.7 µM (inactive) | GI50 (UACC-257): 17.3 µM (inactive)

C=C1CC(C)(COc2ccc3c(C)cc(=O)oc3c2)OC1=O (centres undefined)
GI50 (CAKI-1): 1.3 µM (inactive) | GI50 (EKVX): 4.7 µM (inactive) | GI50 (HCC 2998): 3.5 µM (inactive) | GI50 (HL-60): 0.232 µM (active) | GI50 (HOP-62): 13.8 µM (inactive) | GI50 (HT-29): 1.03 µM (active) | GI50 (IGROV-1): 2.47 µM (inactive) | GI50 (MDA-MB-231): 3.92 µM (inactive) | GI50 (MDA-N): 0.695 µM (active) | GI50 (MOLT-4): 1.47 µM (inactive) | GI50 (NCI-H460): 5.3 µM (inactive) | GI50 (NCI/ADR-RES): 1.95 µM (inactive) | GI50 (OVCAR-3): 2.31 µM (inactive) | GI50 (OVCAR-5): 4.22 µM (inactive) | GI50 (RPMI-8226): 0.414 µM (active) | GI50 (SF-268): 4.41 µM (inactive) | GI50 (SK-MEL-2): 1.65 µM (inactive) | GI50 (UACC-257): 1.25 µM (inactive)

Nc1nc(Cl)cc(NCC2(CO)CC=CC2)n1
GI50 (CAKI-1): > 100 µM (inactive) | GI50 (EKVX): 71 µM (inactive) | GI50 (HCC 2998): > 100 µM (inactive) | GI50 (HOP-62): > 100 µM (inactive) | GI50 (HT-29): > 100 µM (inactive) | GI50 (IGROV-1): > 100 µM (inactive) | GI50 (MDA-MB-231): > 100 µM (inactive) | GI50 (MDA-N): > 100 µM (inactive) | GI50 (MOLT-4): > 100 µM (inactive) | GI50 (NCI-H460): > 100 µM (inactive) | GI50 (NCI/ADR-RES): > 100 µM (inactive) | GI50 (OVCAR-3): 80.2 µM (inactive) | GI50 (OVCAR-5): > 100 µM (inactive) | GI50 (RXF 393): 33.1 µM (inactive) | GI50 (SF-268): > 100 µM (inactive) | GI50 (SK-MEL-2): > 100 µM (inactive) | GI50 (UACC-257): > 100 µM (inactive)

CCCC/N=C(/c1ccccc1)N1CCOCC1
GI50 (A498): > 100 µM (inactive) | GI50 (CAKI-1): > 100 µM (inactive) | GI50 (EKVX): > 100 µM (inactive) | GI50 (HL-60): > 100 µM (inactive) | GI50 (HOP-62): > 100 µM (inactive) | GI50 (HT-29): > 100 µM (inactive) | GI50 (IGROV-1): > 100 µM (inactive) | GI50 (MDA-MB-231): > 100 µM (inactive) | GI50 (MDA-N): > 100 µM (inactive) | GI50 (MOLT-4): > 100 µM (inactive) | GI50 (NCI-H460): > 100 µM (inactive) | GI50 (NCI/ADR-RES): > 100 µM (inactive) | GI50 (OVCAR-3): > 100 µM (inactive) | GI50 (OVCAR-5): > 100 µM (inactive) | GI50 (RPMI-8226): > 100 µM (inactive) | GI50 (RXF 393): > 100 µM (inactive) | GI50 (SF-268): > 100 µM (inactive) | GI50 (SK-MEL-2): > 100 µM (inactive) | GI50 (UACC-257): > 100 µM (inactive)

CCc1oc2ccccc2c1C(=O)c1cc(Br)c(O)c(Br)c1 [BENZBROMARONE]
GI50 (A498): 20.5 µM (inactive) | GI50 (CAKI-1): 36.1 µM (inactive) | GI50 (EKVX): 30.7 µM (inactive) | GI50 (HL-60): 13.6 µM (inactive) | GI50 (HOP-62): 34.3 µM (inactive) | GI50 (HT-29): 30.3 µM (inactive) | GI50 (IGROV-1): 33.7 µM (inactive) | GI50 (MDA-MB-231): 20.5 µM (inactive) | GI50 (MDA-N): 30.2 µM (inactive) | GI50 (MOLT-4): 26.9 µM (inactive) | GI50 (NCI-H460): 18.4 µM (inactive) | GI50 (NCI/ADR-RES): 31.6 µM (inactive) | GI50 (OVCAR-3): 18.2 µM (inactive) | GI50 (OVCAR-5): 21.4 µM (inactive) | GI50 (RPMI-8226): 29 µM (inactive) | GI50 (RXF 393): 15.3 µM (inactive) | GI50 (SF-268): 28.1 µM (inactive) | GI50 (SK-MEL-2): 19.8 µM (inactive) | GI50 (UACC-257): 19.3 µM (inactive)
